Test results: US20240139211A1, “METHODS AND COMPOSITIONS FOR TREATING AMYOTROPHIC LATERAL SCLEROSIS” (Amylyx Pharmaceuticals, Inc., priority 2022, published 2024)
“And” between values parts separate entries of the source, which are not always exact repeats. Equal entries are not always repeated. Where two headings read alike, the source gives them in different places.

How the values were obtained:
P-gp = P-gp (Homo sapiens, UniProt P08183); test: in vitro
P-gp and BCRP = P-gp and BCRP substrate assessment in C2BBe1 monolayers
Description: The P-gp and BCRP substrate assessment was conducted in C2BBe1 cell monolayers. […] LY was co-dosed with each dosing solution at a nominal concentration of 200 μM.
The cell culture medium was aspirated, and the cell monolayers were rinsed once with HBSSg_7.4. […] For receiver samples, aliquots (300 μL) were taken at pre-selected time points. […] For donor samples, aliquots (50 μL) were taken at pre-selected time points without replacement.

[1] = Rat drug-drug interaction study TDF + AMX0035: urine recovery; assay type: in vivo
Description: Total urine recovery data for Tenofovir, TDF, and PB was calculated for the 24 hour collection period on Days 1 and 5. […] The reported urine recovery data included amount recovered (ng) and percent recovered (%) for […]. Individual and mean Tenofovir, TDF, and PB urine recovery data were presented with SD, reported to three significant figures, and CV %, reported to one decimal place.

hrCYP2D6 = hrCYP2D6 (Homo sapiens, UniProt P10635); test: CYP reaction phenotyping with hrCYP2D6 (% remaining); assay type: in vitro ADME; settings: for % Remaining of TA: hrCYP2D6 20 pmol CYP/mL, 5 μM TA, PB and TUDCA co-incubated
[2] = Chemical stability in HBSSg_7.4 and HBSS_8.5; assay type: physicochemical; settings: for Chemical stability in the tested matrices: 0.5 μM, 37° C., HBSSg_7.4 and HBSS_8.5
Description: At pre-determined time points, an equal volume of acetonitrile with internal standard was added to each vial, and the mixture was placed at 4° C. until the end of the assay. The peak areas of the test article and IS of each sample were determined by LC-MS/MS, and the ratios of the peak areas (analyte:IS) were calculated.

hrCYP3A4 = hrCYP3A4 (Homo sapiens, UniProt P08684); test: CYP reaction phenotyping with hrCYP3A4 (% remaining); assay type: in vitro ADME; settings: for % Remaining of TA: hrCYP3A4 20 pmol CYP/mL, 5 μM TA, PB and TUDCA co-incubated
[3] = Relevant plasma concentrations for in vitro transporter assessment; assay type: in vivo; settings: for Plasma Cmax (total [I]1): component of AMX0035, highest oral dose TUDCA 1000 mg, PB 3000 mg; for Unbound [I]m, max: projected unbound Iin; for Unbound Cmax (Unbound [I]1): projected, from total Cmax and plasma protein binding
hrCYP2C8 = target: T1, hrCYP2C8 (Homo sapiens, UniProt P10632); test: CYP reaction phenotyping with hrCYP2C8 (% remaining); assay type: in vitro ADME; settings: for % Remaining of TA: hrCYP2C8 20 pmol CYP/mL, 5 μM TA, PB and TUDCA co-incubated
T1 sequence (P10632 1-490): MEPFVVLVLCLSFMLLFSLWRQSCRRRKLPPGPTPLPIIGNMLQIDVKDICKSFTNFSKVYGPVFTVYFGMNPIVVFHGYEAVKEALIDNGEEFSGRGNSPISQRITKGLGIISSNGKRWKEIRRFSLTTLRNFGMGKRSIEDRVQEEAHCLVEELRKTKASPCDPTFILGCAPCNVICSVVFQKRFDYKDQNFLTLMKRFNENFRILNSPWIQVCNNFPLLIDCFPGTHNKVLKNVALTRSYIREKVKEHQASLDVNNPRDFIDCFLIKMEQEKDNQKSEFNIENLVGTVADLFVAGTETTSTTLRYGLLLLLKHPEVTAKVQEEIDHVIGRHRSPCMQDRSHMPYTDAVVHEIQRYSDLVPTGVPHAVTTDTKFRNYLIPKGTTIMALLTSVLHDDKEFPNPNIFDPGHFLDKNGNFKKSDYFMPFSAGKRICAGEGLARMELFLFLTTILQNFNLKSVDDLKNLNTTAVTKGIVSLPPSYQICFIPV

hrCYP1A2 = target: T2, hrCYP1A2 (Homo sapiens, UniProt P05177); test: CYP reaction phenotyping with hrCYP1A2 (% remaining); assay type: in vitro ADME; settings: for % Remaining of TA: hrCYP1A2 20 pmol CYP/mL, 5 μM TA, PB and TUDCA co-incubated
T2 sequence (P05177 1-516): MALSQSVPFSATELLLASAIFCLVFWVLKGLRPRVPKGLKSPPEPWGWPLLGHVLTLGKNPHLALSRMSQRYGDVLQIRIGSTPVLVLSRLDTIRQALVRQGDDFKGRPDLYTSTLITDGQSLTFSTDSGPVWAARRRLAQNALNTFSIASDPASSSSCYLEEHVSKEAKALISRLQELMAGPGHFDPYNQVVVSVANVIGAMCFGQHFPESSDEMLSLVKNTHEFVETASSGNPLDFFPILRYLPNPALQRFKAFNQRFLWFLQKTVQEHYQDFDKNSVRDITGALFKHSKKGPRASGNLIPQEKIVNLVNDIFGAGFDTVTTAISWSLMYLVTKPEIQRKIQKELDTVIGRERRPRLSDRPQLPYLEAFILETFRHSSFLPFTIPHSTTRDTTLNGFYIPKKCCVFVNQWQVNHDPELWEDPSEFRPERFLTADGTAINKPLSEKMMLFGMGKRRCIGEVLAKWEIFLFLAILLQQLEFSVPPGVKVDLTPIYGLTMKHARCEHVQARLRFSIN

[4] = HBSSg_7.4, Overnight (~1020-[…])
[5] = HBSSg_8.5, Overnight (~1020-[…])
[6] = 1.62 μM TUDCA (Solution 3), C2BBe1 cells, average
[7] = 1.62 μM TUDCA (Solution 3), C2BBe1 cells, single replicates
[8] = 16.2 μM TUDCA (Solution 2), C2BBe1 cells, average
[9] = 16.2 μM TUDCA (Solution 2), C2BBe1 cells, single replicates
[10] = […] TUDCA (Solution 1), C2BBe1 cells, average
[11] = […] TUDCA (Solution 4), C2BBe1 cells, average

hrCYP2D6, sequence (P10635 whole entry): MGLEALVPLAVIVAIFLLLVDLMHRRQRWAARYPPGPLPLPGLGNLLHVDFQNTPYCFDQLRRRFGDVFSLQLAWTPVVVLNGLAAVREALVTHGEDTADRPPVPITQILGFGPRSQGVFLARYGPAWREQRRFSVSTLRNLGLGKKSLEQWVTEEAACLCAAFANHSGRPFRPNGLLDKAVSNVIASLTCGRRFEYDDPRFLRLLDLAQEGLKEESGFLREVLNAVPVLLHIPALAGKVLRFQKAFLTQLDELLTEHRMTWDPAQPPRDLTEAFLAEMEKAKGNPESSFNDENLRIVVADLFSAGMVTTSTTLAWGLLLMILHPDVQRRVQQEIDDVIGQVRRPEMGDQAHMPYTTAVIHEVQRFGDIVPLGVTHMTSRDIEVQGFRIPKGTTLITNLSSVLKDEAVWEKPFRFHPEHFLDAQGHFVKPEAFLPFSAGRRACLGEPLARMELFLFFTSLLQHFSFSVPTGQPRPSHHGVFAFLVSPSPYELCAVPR
hrCYP3A4, sequence (P08684 whole entry): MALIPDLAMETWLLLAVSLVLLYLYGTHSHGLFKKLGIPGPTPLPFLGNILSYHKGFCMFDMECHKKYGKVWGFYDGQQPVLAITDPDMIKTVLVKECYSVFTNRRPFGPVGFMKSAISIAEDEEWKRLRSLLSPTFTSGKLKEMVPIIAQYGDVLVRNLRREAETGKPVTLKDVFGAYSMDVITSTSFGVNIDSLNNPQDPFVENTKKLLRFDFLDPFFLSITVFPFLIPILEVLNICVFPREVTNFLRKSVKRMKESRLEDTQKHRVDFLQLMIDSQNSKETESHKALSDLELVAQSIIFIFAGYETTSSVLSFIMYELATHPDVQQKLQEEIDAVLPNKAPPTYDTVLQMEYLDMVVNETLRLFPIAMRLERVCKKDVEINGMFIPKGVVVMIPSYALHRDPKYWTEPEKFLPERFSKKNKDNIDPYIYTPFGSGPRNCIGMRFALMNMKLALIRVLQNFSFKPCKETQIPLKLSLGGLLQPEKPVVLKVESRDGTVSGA
P-gp, sequence (P08183 whole entry): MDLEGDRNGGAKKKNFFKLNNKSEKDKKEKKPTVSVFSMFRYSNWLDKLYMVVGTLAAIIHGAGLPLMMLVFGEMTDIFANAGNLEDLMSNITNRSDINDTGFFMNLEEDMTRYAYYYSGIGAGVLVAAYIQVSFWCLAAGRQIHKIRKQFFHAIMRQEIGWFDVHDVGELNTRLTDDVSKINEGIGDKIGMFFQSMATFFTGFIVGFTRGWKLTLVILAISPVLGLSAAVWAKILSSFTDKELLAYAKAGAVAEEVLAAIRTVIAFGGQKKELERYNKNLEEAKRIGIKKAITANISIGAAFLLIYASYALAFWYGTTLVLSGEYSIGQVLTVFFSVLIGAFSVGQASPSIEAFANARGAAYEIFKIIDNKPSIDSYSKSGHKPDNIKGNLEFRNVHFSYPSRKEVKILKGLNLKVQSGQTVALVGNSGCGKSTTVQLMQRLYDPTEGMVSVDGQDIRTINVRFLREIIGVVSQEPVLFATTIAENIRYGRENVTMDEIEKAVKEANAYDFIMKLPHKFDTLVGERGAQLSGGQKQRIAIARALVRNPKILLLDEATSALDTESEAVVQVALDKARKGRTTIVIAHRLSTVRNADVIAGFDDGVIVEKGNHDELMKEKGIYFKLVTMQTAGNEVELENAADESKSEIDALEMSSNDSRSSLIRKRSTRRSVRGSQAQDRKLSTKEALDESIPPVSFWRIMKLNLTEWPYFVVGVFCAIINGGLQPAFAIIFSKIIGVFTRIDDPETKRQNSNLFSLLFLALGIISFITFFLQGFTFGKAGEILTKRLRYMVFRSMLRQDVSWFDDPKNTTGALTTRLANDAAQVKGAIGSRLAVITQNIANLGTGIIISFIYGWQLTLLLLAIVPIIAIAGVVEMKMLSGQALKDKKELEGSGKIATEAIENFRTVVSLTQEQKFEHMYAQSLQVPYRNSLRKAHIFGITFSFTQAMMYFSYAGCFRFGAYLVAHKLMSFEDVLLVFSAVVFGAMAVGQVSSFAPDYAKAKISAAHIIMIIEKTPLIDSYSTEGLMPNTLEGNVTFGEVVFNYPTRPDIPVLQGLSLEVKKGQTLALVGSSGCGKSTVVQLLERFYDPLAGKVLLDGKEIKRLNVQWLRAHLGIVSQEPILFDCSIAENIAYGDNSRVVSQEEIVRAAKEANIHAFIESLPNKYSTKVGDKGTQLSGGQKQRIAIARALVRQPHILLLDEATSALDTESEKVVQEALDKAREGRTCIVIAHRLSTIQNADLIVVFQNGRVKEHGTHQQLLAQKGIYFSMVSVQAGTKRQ

O=C(O)Cc1ccccc1 [Phenylacetic acid, phenylacetic acid]
potency estimated from few doses (P-gp): > 7.5 mM

C[C@H](CCC(=O)NCC(=O)O)[C@H]1CC[C@H]2[C@@H]3[C@@H](O)C[C@@H]4C[C@H](O)CC[C@]4(C)[C@H]3CC[C@]12C [Glycoursodeoxycholic acid, glycoursodeoxycholic acid]
potency estimated from few doses (P-gp; Caco-2 cells, probe 3H-digoxin): < 0.01 mM

O=C(O)CCCc1ccccc1 [PB, sodium phenylbutyrate]
P-gp or BCRP substrate (P-gp and BCRP; Caco-2): neither TUDCA nor PB is P-gp or BCRP substrate | Urine concentrations ([1]; male, Sprague-Dawley, rat, in vivo): Urine concentrations for PB analysis in all animals on Day 1, for TUDCA analysis in all animals on Days 1 and 5, and for TDF analysis in two animals on Day 1 and one animal on Day 5 were BLQ (<20 mg/mL) so no recovery data was calculated. | % remaining after 60 minutes (hrCYP2D6; human, 1 h, 5 µM, pH 7.4): greater than 90% | Chemical stability in the tested matrices [2]: appeared to be stable | Percent of the 0-minute value ([2]; HBSSg_7.4, 0 minutes): 100% | Percent of the 0-minute value ([2]; HBSSg_7.4, 120 minutes): 99.3% | Percent of the 0-minute value [2, 4]: 105% | Percent of the 0-minute value ([2]; HBSSg_8.5, 0 minutes): 100% | Percent of the 0-minute value ([2]; HBSSg_8.5, 120 minutes): 79.4% | Percent of the 0-minute value [2, 5]: 98.6% | % remaining after 60 minutes (hrCYP3A4; human, 1 h, 5 µM, pH 7.4): greater than 90% | Plasma Cmax (total [I]1) [3]: 826 µM | Unbound [I]m, max [3]: 326 µM | Unbound Cmax (Unbound [I]1) [3]: 148 µM | % remaining after 60 minutes (hrCYP2C8; human, 1 h, 5 µM, pH 7.4): greater than 90% | % remaining after 60 minutes (hrCYP1A2; human, 1 h, 5 µM, pH 7.4): greater than 90%

tauroursodeoxycholic acid [TUDCA]
Papp AP-to-BL (P-gp and BCRP; [6]): 8.32 10^−6 cm/s | Papp BL-to-AP (P-gp and BCRP; [6]): 1.91 10^−6 cm/s | Papp AP-to-BL (P-gp and BCRP; [7]): 9.59 10^−6 cm/s and 7.25 10^−6 cm/s and 8.12 10^−6 cm/s | Papp BL-to-AP (P-gp and BCRP; [7]): 1.75 10^−6 cm/s and 1.84 10^−6 cm/s | Papp AP-to-BL (P-gp and BCRP; [8]): 2.00 10^−6 cm/s | Papp BL-to-AP (P-gp and BCRP; [8]): 0.610 10^−6 cm/s | Papp AP-to-BL (P-gp and BCRP; [9]): 1.19 10^−6 cm/s and 2.71 10^−6 cm/s and 2.08 10^−6 cm/s | Papp BL-to-AP (P-gp and BCRP; [9]): 0.553 10^−6 cm/s and 0.714 10^−6 cm/s and 0.561 10^−6 cm/s | Papp BL-to-AP (P-gp and BCRP; Caco-2): 2.15 10^−6 cm/s | Papp AP-to-BL (P-gp and BCRP; [10]): 5.92 10^−6 cm/s | Papp BL-to-AP (P-gp and BCRP; [10]): 3.00 10^−6 cm/s | Papp AP-to-BL (P-gp and BCRP; [11]): 7.11 10^−6 cm/s | Papp BL-to-AP (P-gp and BCRP; [11]): 2.14 10^−6 cm/s | Detection in urine ([1]; Days 1 and 5): not detected in any urine samples | % Remaining of TA (hrCYP2D6; 0 min): 100% | % Remaining of TA (hrCYP2D6; 5 min): 98.4% | % Remaining of TA (hrCYP2D6; 10 min): 97.8% | % Remaining of TA (hrCYP2D6; 20 min): 97.0% | % Remaining of TA (hrCYP2D6; 30 min): 99.2% | % Remaining of TA (hrCYP2D6; 60 min): 98.6% | Chemical stability in the tested matrices [2]: appeared to be stable | Percent of the 0-minute value ([2]; HBSSg_7.4, 0 minutes): 100% | Percent of the 0-minute value ([2]; HBSSg_7.4, 120 minutes): 101% | Percent of the 0-minute value [2, 4]: 95.3% | Percent of the 0-minute value ([2]; HBSSg_8.5, 0 minutes): 100% | Percent of the 0-minute value ([2]; HBSSg_8.5, 120 minutes): 90.8% | Percent of the 0-minute value [2, 5]: 96.5% | % Remaining of TA (hrCYP3A4; 0 min): 100% | % Remaining of TA (hrCYP3A4; 5 min): 97.1% | % Remaining of TA (hrCYP3A4; 10 min): 92.1% | % Remaining of TA (hrCYP3A4; 20 min): 91.4% | % Remaining of TA (hrCYP3A4; 30 min): 90.9% | % Remaining of TA (hrCYP3A4; 60 min): 91.1% | Plasma Cmax (total [I]1) [3]: 108 µM | Unbound [I]m, max [3]: 3.48 µM | Unbound Cmax (Unbound [I]1) [3]: 1.62 µM | % Remaining of TA (hrCYP2C8; 0 min): 100% | % Remaining of TA (hrCYP2C8; 5 min): 97.1% | % Remaining of TA (hrCYP2C8; 10 min): 99.3% | % Remaining of TA (hrCYP2C8; 20 min): 101% | % Remaining of TA (hrCYP2C8; 30 min): 101% | % Remaining of TA (hrCYP2C8; 60 min): 99.8% | % Remaining of TA (hrCYP1A2; 0 min): 100% | % Remaining of TA (hrCYP1A2; 5 min): 98.0% | % Remaining of TA (hrCYP1A2; 10 min): 101% | % Remaining of TA (hrCYP1A2; 20 min): 99.9% | % Remaining of TA (hrCYP1A2; 30 min): 103% | % Remaining of TA (hrCYP1A2; 60 min): 90.5%
